pIC50: −log10 of the molar value. Blank lines part the entries; values can stand above or below the molecule they belong to.
Assays:
human SGLT2 = target: T1, human SGLT2 (Homo sapiens, UniProt P31639); test: Assay for inhibitory effects on human SGLT2 activity (uptake of methyl-α-D-glucopyranoside in CS2-5E cells); format: cell-based; details: inhibition of 14C α-MG uptake, CHO-K1 derived CS2-5E cells stably expressing human SGLT2, 1 mM α-MG, 37° C., 1 hour
T1 construct: expressed in transfected cells
T1 sequence (P31639 1-672): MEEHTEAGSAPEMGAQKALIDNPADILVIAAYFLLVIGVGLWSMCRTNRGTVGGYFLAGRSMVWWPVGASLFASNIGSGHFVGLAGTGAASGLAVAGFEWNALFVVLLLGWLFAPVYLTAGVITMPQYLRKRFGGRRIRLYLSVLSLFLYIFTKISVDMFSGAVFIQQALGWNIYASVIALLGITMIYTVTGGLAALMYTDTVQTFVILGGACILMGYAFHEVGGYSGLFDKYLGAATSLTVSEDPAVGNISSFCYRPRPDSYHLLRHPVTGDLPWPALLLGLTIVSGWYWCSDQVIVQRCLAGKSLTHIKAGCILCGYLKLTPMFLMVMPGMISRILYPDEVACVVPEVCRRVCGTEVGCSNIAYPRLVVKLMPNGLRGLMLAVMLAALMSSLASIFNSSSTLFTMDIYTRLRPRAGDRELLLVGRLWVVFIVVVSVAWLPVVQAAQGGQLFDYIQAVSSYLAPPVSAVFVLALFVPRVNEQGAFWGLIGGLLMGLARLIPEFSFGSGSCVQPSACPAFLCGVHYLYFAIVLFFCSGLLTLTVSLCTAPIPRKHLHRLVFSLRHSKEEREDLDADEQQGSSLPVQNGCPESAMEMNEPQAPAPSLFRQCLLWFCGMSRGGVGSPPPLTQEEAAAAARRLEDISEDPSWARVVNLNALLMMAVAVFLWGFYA
Method: Assay for Inhibitory Effects on Human SGLT2 Activity
1) Cloning and Construction of the Vector Expressing Human SGLT2
(§1) The cDNA library was prepared for PCR amplification by reverse transcription from total RNA deprived from human kidney (Ori gene) using oligo-dT as a primer. Using this cDNA library as a template, the DNA fragment coding 2 to 2039 bp of human SGLT2 (ACCESSION: M95549, M95299), which was reported by R. G. Wells et al., was amplified by PCR method and inserted into the multi-cloning site of pcDNA3.1(−) (Invitrogen). The DNA sequence inserted was perfectly matched to the previously reported sequence.
2) Establishment of Cell Line Stably Expressing Human SGLT2
(§2) The expression vector of human SGLT2 was digested by Sca I into a linear DNA. The linear DNA was transfected into CHO-K1 cells by means of lipofection (Effectene Transfection Reagent: QIAGEN). Neomycin resistant cell lines were selected by culture in the medium containing G418 (1 mg/mL, LIFE TECHNOLOGIES), and then the activity against the uptake of methyl-α-D-glucopyranoside was measured by the method described below. […] CS2-5E cells were cultured in the presence of G418 at 200 μg/mL. […]
CS2-5E cells were seeded into a 96-well culture plate at a density of 3×10^4 cells/well and cultured for 2 days, and were used in the uptake assay. […] Radioactivity was measured by means of micro-scintillation counter TopCount (Packard). […]

human SGLT1 = target: T2, human SGLT1 (Homo sapiens, UniProt P13866); test: Assay for inhibitory effects on human SGLT1 activity (uptake of methyl-α-D-glucopyranoside in CS1-5-11D cells); format: cell-based; details: inhibition of 14C α-MG uptake, CHO-K1 derived CS1-5-11D cells stably expressing human SGLT1, 1 mM α-MG, 37° C., 1 hour
T2 construct: expressed in transfected cells
T2 sequence (P13866 1-664): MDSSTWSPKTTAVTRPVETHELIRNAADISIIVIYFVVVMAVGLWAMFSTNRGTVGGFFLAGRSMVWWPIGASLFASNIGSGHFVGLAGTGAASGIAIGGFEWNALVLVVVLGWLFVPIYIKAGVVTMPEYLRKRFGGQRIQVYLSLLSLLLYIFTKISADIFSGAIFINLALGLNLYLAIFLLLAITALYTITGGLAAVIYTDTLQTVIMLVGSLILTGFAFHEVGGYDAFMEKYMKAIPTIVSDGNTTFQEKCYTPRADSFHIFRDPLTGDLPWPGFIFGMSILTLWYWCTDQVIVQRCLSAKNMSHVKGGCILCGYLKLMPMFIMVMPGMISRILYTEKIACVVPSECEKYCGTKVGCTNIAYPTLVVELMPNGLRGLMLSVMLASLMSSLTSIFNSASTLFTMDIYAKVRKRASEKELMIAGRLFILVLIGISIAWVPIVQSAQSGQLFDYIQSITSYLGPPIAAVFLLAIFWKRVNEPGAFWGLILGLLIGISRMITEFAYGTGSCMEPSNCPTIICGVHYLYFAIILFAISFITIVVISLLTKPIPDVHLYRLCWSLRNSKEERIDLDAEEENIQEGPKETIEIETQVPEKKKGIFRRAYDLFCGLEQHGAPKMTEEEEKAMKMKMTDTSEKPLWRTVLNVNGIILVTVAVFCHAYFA
Method: Assay for Inhibitory Effects on Human SGLT1 Activity
1) Cloning and Construction of the Vector Expressing Human SGLT1
as §1, with “small intestine” for “kidney”, “1” for “2”, “2005” for “2039”, “SGLT1” for “SGLT2”, “M24847),” for “M95549, M95299),”, “Hediger” for “R. G. Wells”
2) Establishment of Cell Line Stably Expressing Human SGLT1
as §2, with “SGLT1” for “SGLT2”, “CS1-5-11D” for “CS2-5E”
CS1-5-11D cells were seeded into a 96-well culture plate at a density of 3×10^4 cells/well and cultured for 2 days, and were used in the uptake assay. […] Radioactivity was measured by means of micro-scintillation counter TopCount (Packard). […]

diabetic rats = test: Assay for inhibitory effects on blood glucose level increase in rats (liquid meal tolerance test); format: in vivo, Wistar rats; details: liquid meal load, mean±S.E.; for Plasma glucose concentration 0.5 h: 0.5 hour after administration; for Plasma glucose concentration 1 h: 1 hour after administration; for Plasma glucose concentration 0 h: pretreatment (0 h)
Method: Assay for Inhibitory Effects on Blood Glucose Level Increase in Rats
1) Preparation of Diabetic Rat Model
Male Wistar rats (Japan Charles River), aged 8 weeks old, were injected nicotinamide (230 mg/kg) intraperitoneally. Fifteen minutes after injection, they were injected streptozotocin (85 mg/kg) intravenously from tail vain under anesthesia with ether. After a week, rats were fasted overnight and then glucose tolerance test (2 g/kg) was done.
2) Liquid Meal Tolerance Test
After overnight fasted, the diabetic rats were orally administered a test compound (0.5, 2 mg/kg), which was dissolved in distilled water, in the drug-treating group, or distilled water alone in a control group. Immediately after the compound administration, 4.5 kcal/body of liquid meal (No. 038, Control diet, assorted with dextrin and maltose; Oriental Yeast Co., Ltd.) was loaded orally. The blood was collected from tail artery immediately before and after administration with the time course, and treated with heparin immediately. The blood was centrifuged, and the plasma was collected to quantify the plasma glucose concentration by glucose oxidase method. The values in the Table are presented as the mean±S.E.

Structure (SMILES): OC[C@H]1O[C@@H](Oc2n[nH]c3cccc(CCc4ccccc4)c23)[C@H](O)[C@@H](O)[C@@H]1O [Example 4, 3-(β-D-Glucopyranosyloxy)-4-(2-phenylethyl)-1H-indazole]
- pIC50 (human SGLT2): 7.05

Structure (SMILES): Cc1cc(CCc2cccc3[nH]nc(O[C@@H]4O[C@H](CO)[C@@H](O)[C@H](O)[C@H]4O)c23)ccc1O [Example 5, 3-(β-D-Glucopyranosyloxy)-4-[2-(4-hydroxy-3-methylphenyl)-ethyl]-1H-indazole]
- pIC50 (human SGLT1): 7.92

Structure (SMILES): OCCn1nc(O[C@@H]2O[C@H](CO)[C@@H](O)[C@H](O)[C@H]2O)c2c(CCc3ccc(O)cc3)cccc21 [Example 59, 3-(β-D-Glucopyranosyloxy)-1-(2-hydroxyethyl)-4-[2-(4-hydroxyphenyl)ethyl]-1H-indazole]
- Plasma glucose concentration 0.5 h (diabetic rats; 0.5 mg/kg orally): 173 ± 7 mg/dL
- Plasma glucose concentration 1 h (diabetic rats; 0.5 mg/kg orally): 186 ± 6 mg/dL
- Plasma glucose concentration 0 h (diabetic rats; 0.5 mg/kg orally): 109 ± 2 mg/dL
- Plasma glucose concentration 0.5 h (diabetic rats; 2 mg/kg orally): 141 ± 3 mg/dL
- Plasma glucose concentration 1 h (diabetic rats; 2 mg/kg orally): 153 ± 4 mg/dL
- Plasma glucose concentration 0 h (diabetic rats; 2 mg/kg orally): 115 ± 3 mg/dL

Further lines, results first:

- pIC50 (human SGLT1): 7.00
Structure (SMILES): NC(=O)Cn1nc(O[C@@H]2O[C@H](CO)[C@@H](O)[C@H](O)[C@H]2O)c2c(CCc3ccc(O)cc3)ccnc21 [Example 12, 1-Carbamoylmethyl-3-(β-D-glucopyranosyloxy)-4-[2-(4-hydroxyphenyl)ethyl]-1H-pyrazolo[3,4-b]pyridine]

- pIC50 (human SGLT2): 7.17
Structure (SMILES): OCCn1nc(O[C@@H]2O[C@H](CO)[C@@H](O)[C@H](O)[C@H]2O)c2c(CCc3ccccc3)ccnc21 [Example 17, 3-(β-D-Glucopyranosyloxy)-1-(2-hydroxyethyl)-4-(2-phenylethyl)-1H-pyrazolo[3,4-b]pyridine]

Reference: patent US7998975B2, “Nitrogenous fused-ring derivatives, medicinal compositions containing the derivatives, and use thereof as drugs” (Kissei Pharmaceutical Co., Ltd., priority 2004, dated 2011)
